Experimental data from patent publication US20240327364A1, “THERAPEUTIC TARGETING OF GPR68 TO INDUCE FERROPTOSIS” (University Of Maryland, Baltimore, priority 2023, published 2024).

Assays:
PIM1 = biological target: T1, PIM1 (Homo sapiens, UniProt P11309); assay: KinomeScan; type: binding; conditions: read-out: % Control
T1 construct: purchased DiscoveRx (Fremont, CA)

DDR2 = biological target: T2, DDR2 (Homo sapiens, UniProt Q16832); assay: KinomeScan; type: binding; conditions: read-out: % Control
T2 construct: purchased DiscoveRx (Fremont, CA), KinomeScan service

MRGX1 = biological target: T3, MRGX1 (Homo sapiens, UniProt Q96LB2); assay: GPCR Profiler; type: cell-based
T3 construct: host or cells: Chem-1 cells expressing Gα15

FLT3(D835H) = biological target: T4, FLT3(D835H) (Homo sapiens, UniProt P36888, D835H); assay: KinomeScan; type: binding; conditions: read-out: % Control
T4 construct: purchased DiscoveRx (Fremont, CA)

STK35 = biological target: T5, STK35 (Homo sapiens, UniProt Q8TDR2); assay: KinomeScan; type: binding; conditions: read-out: % Control
T5 construct: purchased DiscoveRx (Fremont, CA)

MUSK = biological target: T6, MUSK (Homo sapiens, UniProt O15146); assay: KinomeScan; type: binding; conditions: read-out: % Control
T6 construct: purchased DiscoveRx

OX2 = biological target: T7, OX2 (Homo sapiens, UniProt O43614); assay: GPCR Profiler; type: cell-based
T7 construct: host or cells: Chem-1 cells expressing Gα15

FLT1 = biological target: T8, FLT1 (Homo sapiens, UniProt P17948); assay: KinomeScan; type: binding; conditions: read-out: % Control
T8 construct: purchased DiscoveRx (Fremont, CA)

NEK1 = biological target: T9, NEK1 (Homo sapiens, UniProt Q96PY6); assay: KinomeScan; type: binding; conditions: read-out: % Control
T9 construct: purchased DiscoveRx

IKK-epsilon = biological target: T10, IKK-epsilon (Homo sapiens, UniProt Q14164); assay: KinomeScan; type: binding; conditions: read-out: % Control
T10 construct: purchased DiscoveRx (Fremont, CA)

VRK2 = biological target: T11, VRK2 (Homo sapiens, UniProt Q86Y07); assay: KinomeScan; type: binding; conditions: read-out: % Control
T11 construct: purchased DiscoveRx

GPR109A = biological target: T12, GPR109A (Homo sapiens, UniProt Q8TDS4); assay: GPCR Profiler; type: cell-based
T12 construct: host or cells: Chem-1 cells expressing Gα15

GPR41 = biological target: T13, GPR41 (Homo sapiens, UniProt O14843); assay: GPCR Profiler; type: cell-based
T13 construct: host or cells: Chem-1 cells with promiscuous Gα15

QSK = biological target: T14, QSK (Homo sapiens, UniProt Q9Y2K2); assay: KinomeScan; type: binding; conditions: read-out: % Control
T14 construct: purchased DiscoveRx (Fremont, CA)

CLK2 = CLK2 (Homo sapiens, UniProt P49760); assay: KinomeScan; type: binding; conditions: read-out: % Control
Trypsin activated PARS = assay: GPCR Profiler; type: cell-based
MEK6 = biological target: T15, MEK6 (Homo sapiens, UniProt P52564); assay: KinomeScan; type: binding; conditions: read-out: % Control
T15 construct: purchased DiscoveRx (Fremont, CA)

PIP5K2B = biological target: T16, PIP5K2B (Homo sapiens, UniProt P78356); assay: KinomeScan; type: binding; conditions: read-out: % Control
T16 construct: purchased DiscoveRx (Fremont, CA)

DAPK1 = DAPK1 (Homo sapiens, UniProt P53355); assay: KinomeScan; type: binding; conditions: read-out: % Control
PAK3 = biological target: T17, PAK3 (Homo sapiens, UniProt O75914); assay: KinomeScan; type: binding; conditions: read-out: % Control
T17 construct: purchased DiscoveRx

FPR1 = biological target: T18, FPR1 (Homo sapiens, UniProt P21462); assay: GPCR Profiler; type: cell-based
T18 construct: host or cells: Chem-1 cells expressing Gα15

sst5 = biological target: T19, sst5 (Homo sapiens, UniProt P35346); assay: GPCR Profiler; type: cell-based
T19 construct: host or cells: Chem-1 cells with Gα15

MYLK = biological target: T20, MYLK (Homo sapiens, UniProt Q15746); assay: KinomeScan; type: binding; conditions: read-out: % Control
T20 construct: purchased DiscoveRx

DAPK3 = biological target: T21, DAPK3 (Homo sapiens, UniProt O43293); assay: KinomeScan; type: binding; conditions: read-out: % Control
T21 construct: purchased DiscoveRx (Fremont, CA), KinomeScan service

BRAF(V600E) = biological target: T22, BRAF(V600E) (Homo sapiens, UniProt P15056, V600E); assay: KinomeScan; type: binding; conditions: read-out: % Control
T22 construct: purchased DiscoveRx (Fremont, CA)

5-HT6 = biological target: T23, 5-HT6 (Homo sapiens, UniProt P50406); assay: GPCR Profiler; type: cell-based
T23 construct: host or cells: Chem-1 cells with promiscuous Gα15

TRKC = biological target: T24, TRKC (Homo sapiens, UniProt Q16288); assay: KinomeScan; type: binding; conditions: read-out: % Control
T24 construct: purchased DiscoveRx (Fremont, CA)

LPS-induced ALI = assay: LPS-induced acute lung injury; type: in vivo, mice; conditions: LPS 0.7 mg/kg intratracheally; compounds intraperitoneally
Source text: PMN (polymorphonuclear neutrophils).

zebrafish embryos = assay: Acridine orange stain of zebrafish embryos (cell death); conditions: in vivo

T19 sequence (P35346 whole entry, species assumed): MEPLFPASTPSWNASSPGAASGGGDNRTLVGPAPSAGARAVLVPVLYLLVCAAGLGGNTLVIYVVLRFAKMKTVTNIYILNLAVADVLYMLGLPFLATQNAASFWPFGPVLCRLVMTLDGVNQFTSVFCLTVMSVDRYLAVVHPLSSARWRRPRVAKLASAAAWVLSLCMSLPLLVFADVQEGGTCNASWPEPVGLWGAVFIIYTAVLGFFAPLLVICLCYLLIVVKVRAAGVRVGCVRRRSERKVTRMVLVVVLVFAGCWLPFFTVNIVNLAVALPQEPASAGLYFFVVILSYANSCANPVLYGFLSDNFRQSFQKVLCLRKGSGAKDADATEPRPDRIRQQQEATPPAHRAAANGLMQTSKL
T12 sequence (Q8TDS4 whole entry): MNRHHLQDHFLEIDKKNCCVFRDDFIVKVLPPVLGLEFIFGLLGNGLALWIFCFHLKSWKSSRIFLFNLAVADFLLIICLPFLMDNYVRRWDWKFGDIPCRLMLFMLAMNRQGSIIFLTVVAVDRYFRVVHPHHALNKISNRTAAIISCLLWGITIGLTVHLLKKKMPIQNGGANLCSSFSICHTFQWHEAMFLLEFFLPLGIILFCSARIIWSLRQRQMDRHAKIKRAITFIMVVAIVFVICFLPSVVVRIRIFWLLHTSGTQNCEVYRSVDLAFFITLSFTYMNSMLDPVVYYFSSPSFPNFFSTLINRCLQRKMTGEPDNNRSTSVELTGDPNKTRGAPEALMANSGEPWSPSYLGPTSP
T23 sequence (P50406 whole entry, species assumed): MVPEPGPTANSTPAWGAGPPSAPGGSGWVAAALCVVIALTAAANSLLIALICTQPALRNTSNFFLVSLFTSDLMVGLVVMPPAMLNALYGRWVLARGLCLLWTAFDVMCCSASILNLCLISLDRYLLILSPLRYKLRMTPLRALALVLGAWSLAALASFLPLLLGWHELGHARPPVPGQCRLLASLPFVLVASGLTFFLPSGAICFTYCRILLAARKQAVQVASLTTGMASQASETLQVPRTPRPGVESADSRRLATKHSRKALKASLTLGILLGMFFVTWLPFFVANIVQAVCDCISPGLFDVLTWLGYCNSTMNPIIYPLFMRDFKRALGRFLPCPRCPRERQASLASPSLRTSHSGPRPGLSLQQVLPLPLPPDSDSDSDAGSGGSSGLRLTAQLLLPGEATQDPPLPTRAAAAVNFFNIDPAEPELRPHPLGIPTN
T3 sequence (Q96LB2 whole entry, species assumed): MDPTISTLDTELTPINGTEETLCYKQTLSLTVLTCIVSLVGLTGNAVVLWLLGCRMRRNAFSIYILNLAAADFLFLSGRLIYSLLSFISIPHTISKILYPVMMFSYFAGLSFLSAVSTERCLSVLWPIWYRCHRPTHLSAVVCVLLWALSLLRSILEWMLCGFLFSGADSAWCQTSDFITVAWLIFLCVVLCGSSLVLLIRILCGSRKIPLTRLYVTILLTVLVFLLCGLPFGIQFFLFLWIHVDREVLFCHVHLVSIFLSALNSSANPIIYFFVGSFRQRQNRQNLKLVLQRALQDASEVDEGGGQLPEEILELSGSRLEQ
T7 sequence (O43614 whole entry): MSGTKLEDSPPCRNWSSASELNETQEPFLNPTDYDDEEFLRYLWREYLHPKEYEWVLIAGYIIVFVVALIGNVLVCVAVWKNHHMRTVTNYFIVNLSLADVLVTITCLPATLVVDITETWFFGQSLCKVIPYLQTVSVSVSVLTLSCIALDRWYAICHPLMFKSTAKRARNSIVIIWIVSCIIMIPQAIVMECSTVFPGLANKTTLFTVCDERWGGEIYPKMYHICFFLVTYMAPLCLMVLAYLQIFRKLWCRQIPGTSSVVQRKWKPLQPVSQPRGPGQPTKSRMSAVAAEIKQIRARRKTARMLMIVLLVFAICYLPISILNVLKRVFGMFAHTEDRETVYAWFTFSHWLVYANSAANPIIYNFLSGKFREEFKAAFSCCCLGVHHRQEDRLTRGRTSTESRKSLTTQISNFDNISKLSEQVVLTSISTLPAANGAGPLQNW
T18 sequence (P21462 whole entry): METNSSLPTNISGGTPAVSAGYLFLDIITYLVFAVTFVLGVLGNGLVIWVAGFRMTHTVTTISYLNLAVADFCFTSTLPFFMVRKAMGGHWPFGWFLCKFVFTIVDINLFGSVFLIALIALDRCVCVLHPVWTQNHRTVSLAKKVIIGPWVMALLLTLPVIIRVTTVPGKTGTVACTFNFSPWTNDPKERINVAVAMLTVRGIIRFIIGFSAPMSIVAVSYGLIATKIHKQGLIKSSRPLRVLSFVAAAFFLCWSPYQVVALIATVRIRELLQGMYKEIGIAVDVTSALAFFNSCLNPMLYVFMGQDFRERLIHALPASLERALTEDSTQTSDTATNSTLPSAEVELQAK
T13 sequence (O14843 whole entry, species assumed): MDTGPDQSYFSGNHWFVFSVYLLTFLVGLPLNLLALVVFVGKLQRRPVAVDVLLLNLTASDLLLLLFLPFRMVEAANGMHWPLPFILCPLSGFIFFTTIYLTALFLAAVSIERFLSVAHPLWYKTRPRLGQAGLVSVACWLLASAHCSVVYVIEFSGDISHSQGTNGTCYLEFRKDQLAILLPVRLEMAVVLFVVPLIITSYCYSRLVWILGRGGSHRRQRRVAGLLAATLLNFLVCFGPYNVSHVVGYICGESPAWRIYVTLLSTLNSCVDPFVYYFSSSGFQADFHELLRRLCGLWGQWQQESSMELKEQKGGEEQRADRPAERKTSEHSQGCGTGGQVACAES
T2 sequence (Q16832 22-855): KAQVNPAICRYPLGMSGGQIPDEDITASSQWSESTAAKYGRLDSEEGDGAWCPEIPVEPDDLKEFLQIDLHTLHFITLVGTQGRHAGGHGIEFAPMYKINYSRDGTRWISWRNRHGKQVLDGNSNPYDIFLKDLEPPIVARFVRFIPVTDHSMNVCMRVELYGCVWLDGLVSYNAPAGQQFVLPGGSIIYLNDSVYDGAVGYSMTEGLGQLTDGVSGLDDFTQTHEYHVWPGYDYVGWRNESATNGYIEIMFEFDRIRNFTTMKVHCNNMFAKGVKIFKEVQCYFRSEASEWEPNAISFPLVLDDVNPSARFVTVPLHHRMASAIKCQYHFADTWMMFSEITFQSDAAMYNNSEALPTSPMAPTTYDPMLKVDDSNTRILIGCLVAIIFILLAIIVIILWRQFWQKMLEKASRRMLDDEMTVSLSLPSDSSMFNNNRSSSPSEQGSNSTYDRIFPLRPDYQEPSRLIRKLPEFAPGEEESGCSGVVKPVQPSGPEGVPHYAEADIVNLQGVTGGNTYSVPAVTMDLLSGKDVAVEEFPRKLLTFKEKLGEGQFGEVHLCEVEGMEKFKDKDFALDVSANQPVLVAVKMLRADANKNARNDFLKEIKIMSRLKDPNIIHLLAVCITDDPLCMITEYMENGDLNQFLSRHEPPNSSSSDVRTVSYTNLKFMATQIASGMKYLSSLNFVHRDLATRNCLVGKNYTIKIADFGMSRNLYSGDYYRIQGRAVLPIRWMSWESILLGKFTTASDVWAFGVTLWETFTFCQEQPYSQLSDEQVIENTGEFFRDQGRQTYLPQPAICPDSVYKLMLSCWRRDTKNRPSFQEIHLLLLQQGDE
T8 sequence (P17948 27-1338): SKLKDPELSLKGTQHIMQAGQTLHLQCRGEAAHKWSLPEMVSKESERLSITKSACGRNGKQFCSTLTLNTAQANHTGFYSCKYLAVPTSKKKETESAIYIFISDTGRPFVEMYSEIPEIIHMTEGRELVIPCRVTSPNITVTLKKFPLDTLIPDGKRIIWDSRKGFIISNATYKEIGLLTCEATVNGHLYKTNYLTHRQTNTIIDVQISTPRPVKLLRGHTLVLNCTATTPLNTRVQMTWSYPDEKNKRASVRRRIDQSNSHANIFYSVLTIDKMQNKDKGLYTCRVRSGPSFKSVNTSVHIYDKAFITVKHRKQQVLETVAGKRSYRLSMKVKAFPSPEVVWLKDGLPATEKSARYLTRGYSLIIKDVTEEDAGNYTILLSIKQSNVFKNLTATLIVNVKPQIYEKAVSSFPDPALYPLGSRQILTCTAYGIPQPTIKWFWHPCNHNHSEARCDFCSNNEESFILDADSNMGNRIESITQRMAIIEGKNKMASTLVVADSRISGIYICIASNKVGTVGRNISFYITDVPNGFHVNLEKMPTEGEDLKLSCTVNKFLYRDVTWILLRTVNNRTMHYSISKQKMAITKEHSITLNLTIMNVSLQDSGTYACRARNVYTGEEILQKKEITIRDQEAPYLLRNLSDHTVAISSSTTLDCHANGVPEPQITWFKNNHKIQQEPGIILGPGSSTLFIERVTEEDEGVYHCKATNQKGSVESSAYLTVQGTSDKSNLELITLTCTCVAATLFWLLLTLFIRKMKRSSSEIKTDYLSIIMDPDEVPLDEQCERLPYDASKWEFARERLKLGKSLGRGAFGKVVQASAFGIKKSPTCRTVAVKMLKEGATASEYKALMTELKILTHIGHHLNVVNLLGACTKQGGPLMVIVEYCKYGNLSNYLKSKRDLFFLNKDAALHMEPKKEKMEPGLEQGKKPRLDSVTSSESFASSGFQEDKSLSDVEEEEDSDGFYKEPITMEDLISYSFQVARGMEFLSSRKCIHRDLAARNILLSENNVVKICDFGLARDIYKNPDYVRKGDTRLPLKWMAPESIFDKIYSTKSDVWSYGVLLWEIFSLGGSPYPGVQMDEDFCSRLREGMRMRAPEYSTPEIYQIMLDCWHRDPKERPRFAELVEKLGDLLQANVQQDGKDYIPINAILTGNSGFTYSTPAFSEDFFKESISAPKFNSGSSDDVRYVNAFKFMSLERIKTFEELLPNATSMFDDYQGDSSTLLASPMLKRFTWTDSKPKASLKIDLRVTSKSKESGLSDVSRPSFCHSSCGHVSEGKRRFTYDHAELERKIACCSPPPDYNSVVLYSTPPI

CCc1ccc2c(c1)C1(NN=C(c3cccc4ccccc34)S1)C(=O)N2 (stereo not shown) [OGM1, 5-ethyl-5′-naphthalen-1-ylspiro[1H-indole-3,2′-3H-1,3,4-thiadiazole]-2-one]
remaining binding at 10 µM (PIM1): 56%
remaining binding at 10 µM (DDR2): 86%
Antagonism (MRGX1; 10 uM): 2.3
Agonism (MRGX1; 12.5 uM): −0.1
remaining binding at 10 µM (FLT3(D835H)): 100%
remaining binding at 10 µM (STK35): 100%
remaining binding at 10 µM (MUSK): 90%
Antagonism (OX2; 10 uM): −3.4
Agonism (OX2; 12.5 uM): 0.2
remaining binding at 10 µM (FLT1): 100%
remaining binding at 10 µM (NEK1): 83%
remaining binding at 10 µM (IKK-epsilon): 100%
remaining binding at 10 µM (VRK2): 93%
Antagonism (GPR109A; 10 uM): 20.3
Agonism (GPR109A; 12.5 uM): −0.2
Antagonism (GPR41; 10 uM): 1.9
Agonism (GPR41; 12.5 uM): 0.4
remaining binding at 10 µM (QSK): 100%
remaining binding at 10 µM (CLK2): 61%
Antagonism (Trypsin activated PARS; 10 uM): 18.2
Agonism (Trypsin activated PARS; 12.5 uM): 0
remaining binding at 10 µM (MEK6): 76%
remaining binding at 10 µM (PIP5K2B): 100%
remaining binding at 10 µM (DAPK1): 90%
remaining binding at 10 µM (PAK3): 93%
Antagonism (FPR1; 10 uM): 14.3
Agonism (FPR1; 12.5 uM): −0.2
Antagonism (sst5; 10 uM): −4
Agonism (sst5; 12.5 uM): −0.3
remaining binding at 10 µM (MYLK): 91%
remaining binding at 10 µM (DAPK3): 91%
remaining binding at 10 µM (BRAF(V600E)): 94%
Antagonism (5-HT6; 10 uM): −4.4
Agonism (5-HT6; 12.5 uM): −0.7
remaining binding at 10 µM (TRKC): 62%

CCc1ccc2c(c1)C1(NN=C(c3ccccc3)S1)C(=O)N2 (stereo not shown) [OGM2]
inflammatory cell infiltrates in BAL (LPS-induced ALI): reduced inflammatory cell infiltrates in BAL
excess cell death (zebrafish embryos): did not induce excess cell death in zebrafish larvae
